Measured values taken from patent US12338279B2, “Selective and potent inhibitory antibodies of myostatin activation” (SCHOLAR ROCK, INC., priority 2022, dated 2025).

What was measured:
Assay type in all cases: in vivo, mouse
circulating leptin = experiment: Circulating leptin (U-PLEX Metabolic Hormones Combo 1), Example 6; settings: for Leptin Day 64 (circulating leptin): 60%/45% high fat diet
Description: Circulating leptin was measured using the U-PLEX Metabolic Hormones Combo 1 (mouse) according to manufacturer's instructions (Meso Scale Diagnostics, #K15306K-2). As expected, circulating leptin was higher in animals fed the high fat diet than animals fed a standard chow.

[1] = test system: male C57/BL6 mice on high fat diet; experiment: Diet-induced obesity model, Ab109 with 0.01 or 0.04 mg/kg semaglutide (Example 9); settings: for loss in quadriceps weight: FIG. 21A
Description: Male C57/BL6 male mice (n=8/group) were placed on a 60% high fat diet at ˜6 weeks of age and maintained on the 60% high fat diet until 21 weeks of age (Groups 1-12), at which time the study began (day −7). On day −7, animals in groups 1-12 were switched to a 45% high fat diet and maintained on the 45% high fat diet until the animals were terminated. […] Body weight was measured three times per week and qNMR measurements of lean mass and fat mass were obtained pre-dose on day 0 and on days 7, 14 and 21. Fasting glucose was measured on day 18 after a 4 hour fast.
Animals in groups 3-12 were dosed with semaglutide daily for 3 weeks, then terminated. Animals in groups 1, 3, and 4 were treated with IgG control antibody, and those in groups 2, 5-12 were treated with myostatin activation inhibiting antibody treatment, for 3 weeks.
At termination, left gastrocnemius and quadriceps muscles were removed and frozen; the liver was weighed, one lobe was frozen; epididymal (perigonadal) adipose tissue was removed and weighed; inguinal (subcutaneous) adipose tissue was removed and weighed; and a terminal serum bleed was obtained.

[2] = test system: male C57/BL6 mice on high fat diet; experiment: Diet-induced obesity model, semaglutide with Ab109, withdrawal and continuous arms (Example 6); settings: for Relative Fat Mass Day 63 (% Body Fat): 60%/45% high fat diet
Description: Male C57/BL6 male mice (n=8/group) were either fed regular mouse chow (Group 1) or placed on a 60% high fat diet at six weeks of age and maintained on the 60% high fat diet until 21 weeks of age (Groups 2-8), at which time the study began (day 0). On day 0, animals in groups 2-8 were switched to a 45% high fat diet and maintained on the 45% high fat diet until the animals were terminated. […] Body weight was measured three times per week and qNMR measurements of lean mass and fat mass were obtained on the days set forth.
Animals in groups 3 and 4 were dosed with semaglutide weekly for 14 days, then terminated. Animals in groups 5 and 6 (weight regain groups), were treated with semaglutide for 35 days, then the semaglutide treatment was ended while the myostatin activation inhibiting antibody treatment continued until the animals were terminated on day 63. The animals in Groups 7 and 8 were treated with semaglutide for 63 days, i.e., they remained on semaglutide until the study terminated on day 63.
At termination, left and right gastrocnemius muscles were removed and frozen; the liver was weighed, one lobe was fixed, and the remainder was frozen; epididymal adipose tissue was removed and weighed; subcutaneous adipose tissue was removed and weighed; and a terminal serum bleed was obtained.

total myostatin in serum = experiment: Circulating total myostatin in serum (acidification ELISA), dexamethasone model; settings: as compared to apitegromab
Source text: Briefly, serum samples were acidified at low pH (e.g., pH ˜2.5) to dissociate the bound antibody from the immune complex and to convert all myostatin in the sample to the active form of growth factor (i.e., mature myostatin). Samples were then neutralized and assayed for the presence of mature myostatin on ELISA plates coated with anti-mature myostatin antibodies as capture reagents.

[3] = semaglutide 0.04 mg/kg day 7-35 (regain arm) with control hIgG
[4] = semaglutide 0.04 mg/kg day 7-63 with control hIgG
[5] = semaglutide 0.04 mg/kg and hIgG

| Substance | Leptin Day 64 (circulating leptin) (circulating leptin; [3]) | Leptin Day 64 (circulating leptin) (circulating leptin; [4]) | circulating leptin (circulating leptin; treatment arm as in the words, FIG. 14K) | loss in lean mass ([1]; 0.01 mg/kg semaglutide, FIG. 20B) | lean mass lost ([1]; 0.04 mg/kg semaglutide and hIgG, 3 weeks, FIG. 20A) | loss in quadriceps weight ([1]; semaglutide high dose (0.04 mg/kg)) | loss in quadriceps weight ([1]; semaglutide low dose (0.01 mg/kg)) | Relative Fat Mass Day 63 (% Body Fat) [2, 3] | Relative Fat Mass Day 63 (% Body Fat) [2, 4] | lean mass lost while on semaglutide [2, 5] | net loss of lean mass at the end of the study [2, 5] | fat mass ([2]; semaglutide 0.04 mg/kg, FIG. 14D) | accumulation of total or latent myostatin in serum samples from dosed subjects (total myostatin in serum) |
| --- | --- | --- | --- | --- | --- | --- | --- | --- | --- | --- | --- | --- | --- |
| semaglutide [reference compound] | 37.87 ng/mL | 6.357 ng/mL | Continuous semaglutide administration lowered circulating leptin | 4.7% | about 9.5% | −7.6% | −4.8% | 28.69 % Body Fat | 14.84 % Body Fat | about 4% | 2.5% | induced fat mass loss |  |
| apitegromab: prior art myostatin-selective activation inhibitor antibody targeting pro/latent myostatin [reference compound] |  |  |  |  |  |  |  |  |  |  |  |  | increased accumulation |
